Measurements from publication PMC6295246 (Clinical cancer research : an official journal of the …, 2018).

Key:
[1] = system: relapsed or refractory neuroblastoma; experiment: Best objective response; assay type: in vivo, human; settings: pooled Phase 1/2/OS
[2] = system: relapsed or refractory neuroblastoma; experiment: Progression-free survival; assay type: in vivo, human; settings: pooled Phase 1/2/OS
[3] = Alisertib plasma pharmacokinetics; assay type: in vivo, human; settings: pooled phase 1, phase 2 and OS cohorts
[4] = system: relapsed and refractory neuroblastoma; settings: phase 1, with irinotecan and temozolomide; cited from earlier work
[5] = Alisertib Day 5 trough > median, N=21
[6] = Alisertib Day 5 trough ≤ median, N=21
[7] = Alisertib exposure > median, N=21
[8] = Alisertib exposure ≤ median, N=21

In the case of COc1cc(Nc2ncc3c(n2)-c2ccc(Cl)cc2C(c2c(F)cccc2OC)=NC3)ccc1C(=O)O [alisertib], the “Objective Response” value ([1]; > 2 Prior regimens, N=17) was 24%, the “Objective Response” value ([1]; AURKA Codon 31 heterozygote, N=12) was 25% and the “Objective Response” value ([1]; AURKA Codon 31 wild type, N=27) was 19%. The “Objective Response” value ([1]; AURKA Codon 57 wild type, N=27) was 19%, the “Objective Response” value ([1]; Age < 8 years, N=28) was 18% and the “Objective Response” value ([1]; Age ≥ 4 years, N=47) was 26%. For the same molecule, the “Objective Response” value ([1]; Age ≥ 8 years, N=26) was 27%, the “Objective Response” value ([1]; Alisertib Cmax > median, N=21) was 19% and the “Objective Response” value ([1]; Alisertib Cmax ≤ median, N=21) was 24%. The “Objective Response” value [1, 5] was 24%, the “Objective Response” value [1, 6] was 19% and the “Objective Response” value [1, 7] was 19%. The “Objective Response” value [1, 8] was 24%, the “Objective Response” value ([1]; Aurora A protein +, N=12) was 17% and the “Objective Response” value ([1]; Aurora A protein −, N=18) was 22%. For the same molecule, the “Objective Response” value ([1]; Lin28B protein +, N=17) was 12%, the “Objective Response” value ([1]; MYCN non-amplified, N=33) was 27% and the “Objective Response” value ([1]; No prior irinotecan, N=36) was 28%. The “Objective Response” value ([1]; No prior temozolomide, N=37) was 27%, the “Objective Response” value ([1]; Prior temozolomide, N=17) was 12% and the “Objective Response” value ([1]; UGT1A1 genotype 6 / 6, N=17) was 35%. For the same molecule, the “Objective Response” value ([1]; UGT1A1 genotype 6 / 7, N=17) was 6%, the “Objective Response” value ([1]; UGT1A1 genotype 7 / 7, N=5) was 20% and the “Objective Response” value ([1]; ≤ 2 Prior regimens, N=37) was 22%. For the same molecule, the “1-Yr PFS” value ([2]; > 2 Prior regimens, N=17) was 32%, the “1-Yr PFS” value ([2]; AURKA Codon 31 wild type, N=27) was 32% and the “1-Yr PFS” value ([2]; AURKA Codon 57 heterozygote, N=13) was 43%. For the same molecule, the “1-Yr PFS” value ([2]; Age ≥ 4 years, N=47) was 42%, the “1-Yr PFS” value ([2]; Age ≥ 8 years, N=26) was 47% and the “1-Yr PFS” value ([2]; Alisertib Cmax > median, N=21) was 28%. The “1-Yr PFS” value ([2]; Alisertib Cmax ≤ median, N=21) was 55%, the “1-Yr PFS” value [2, 5] was 45% and the “1-Yr PFS” value [2, 6] was 33%. For the same molecule, the “1-Yr PFS” value [2, 7] was 41%, the “1-Yr PFS” value [2, 8] was 38% and the “1-Yr PFS” value ([2]; Lin 28B protein −, N=13) was 34%. For the same molecule, the “1-Yr PFS” value ([2]; MYCN amplified or Myc/Mycn +, N=18) was 12%, the “1-Yr PFS” value ([2]; MYCN non-amplified, N=33) was 47% and the “1-Yr PFS” value ([2]; No prior irinotecan, N=36) was 43%. For the same molecule, the “1-Yr PFS” value ([2]; No prior temozolomide, N=37) was 41%, the “1-Yr PFS” value ([2]; Prior temozolomide, N=17) was 32% and the “1-Yr PFS” value ([2]; UGT1A1 genotype 6 / 6, N=17) was 57%. The “1-Yr PFS” value ([2]; UGT1A1 genotype 6 / 7, N=17) was 26%, the “1-Yr PFS” value ([2]; UGT1A1 genotype 7 / 7, N=5) was 40% and the “1-Yr PFS” value ([2]; ≤ 2 Prior regimens, N=37) was 42%. For the same molecule, the “alisertib Day 5 trough in the first cycle, median” value [3] was 0.46 µM, the “estimated progression-free survival (PFS) rate at 2 years” value [4] was 52% and the response rate [4] was 31.8%.
